# Laboratory results: ChEMBL document CHEMBL4261498, “Synthesis, characterization, and radioprotective activity of α,β-unsaturated aryl sulfone analogs and their Tempol conjugates” (Medchemcomm, 2017)
# Active and inactive are the calls of the source. The calls are words filed in the database; no cut-off is given here.
# How the values were obtained:
# HUVEC [1] = experiment: Cytotoxicity against HUVEC at <10 uM after 24 hrs by MTT assay; format: cell-based; conditions: human
# HUVEC [2] = experiment: Cytotoxicity against HUVEC after 24 hrs by MTT assay; format: cell-based; conditions: human
# HUVEC [3] = experiment: Radioprotective activity against 5 Gy gamma radiation-mediated cell damage in HUVEC assessed as increase in cell survival at 0.01 to 10 uM preincubated for 2 hrs followed by 5 Gy gamma irradiation and measured after 48 hrs by MTT assay; format: functional, cell-based; conditions: Homo sapiens
# HUVEC [4] = experiment: (§1) Radioprotective activity against 5 Gy gamma radiation-mediated cell damage in HUVEC assessed as early apoptotic cells at 0.1 uM preincubated for 2 hrs followed by 5 Gy gamma irradiation and measured after 24 hrs by annexin-V-FITC/propidium iodide staining-based flow cytometric method (reference value: 21.2%); format: functional, Homo sapiens
# HUVEC [5] = experiment: as §1, with “late” for “early”, “9.5%)” for “21.2%)”; format: functional, Homo sapiens
# HUVEC [6] = experiment: as §1, with “necrotic” for “early apoptotic”, “3.5%)” for “21.2%)”; format: functional, Homo sapiens
# HUVEC [7] = experiment: (§2) Radioprotective activity against 5 Gy gamma radiation-mediated cell damage in HUVEC assessed as viable cells at 0.1 uM preincubated for 2 hrs followed by 5 Gy gamma irradiation and measured after 24 hrs by annexin-V-FITC/propidium iodide staining-based flow cytometric method (reference value: 65.8%); format: functional; conditions: Homo sapiens, light or radiation study, read-out: Activity
# HUVEC [8] = experiment: as §1, with “1” for “0.1”; format: functional, Homo sapiens
# HUVEC [9] = experiment: as §1, with “late” for “early”, “1” for “0.1”, “9.5%)” for “21.2%)”; format: functional, Homo sapiens
# HUVEC [10] = experiment: (§3) Radioprotective activity against 5 Gy gamma radiation-mediated cell damage in HUVEC assessed as necrotic cells at 1 uM preincubated for 2 hrs followed by 5 Gy gamma irradiation and measured after 24 hrs by annexin-V-FITC/propidium iodide staining-based flow cytometric method (reference value: 3.5%); format: functional, Homo sapiens
# HUVEC [11] = experiment: Radioprotective activity against 5 Gy gamma radiation-mediated cell damage in HUVEC assessed as viable cells at 1 uM preincubated for 2 hrs followed by 5 Gy gamma irradiation and measured after 24 hrs by annexin-V-FITC/propidium iodide staining-based flow cytometric method (reference value: 65.8%); format: functional; conditions: Homo sapiens, light or radiation study, read-out: Activity
# HUVEC [12] = experiment: as §1, with “0.01” for “0.1”; format: functional, Homo sapiens
# HUVEC [13] = experiment: as §1, with “late” for “early”, “0.01” for “0.1”, “9.5%)” for “21.2%)”; format: functional, Homo sapiens
# HUVEC [14] = experiment: as §3, with “0.01” for “1”; format: functional, Homo sapiens
# HUVEC [15] = experiment: as §2, with “0.01” for “0.1”; format: functional; conditions: Homo sapiens, light or radiation study, read-out: Activity
# HUVEC [16] = experiment: Radioprotective activity against 5 Gy gamma radiation-mediated cell damage in HUVEC assessed as increase in cell survival at 0.1 to 10 uM preincubated for 2 hrs followed by 5 Gy gamma irradiation and measured after 48 hrs by MTT assay; format: functional, cell-based; conditions: Homo sapiens
# HUVEC [17] = experiment: as §1, with “10” for “0.1”; format: functional, Homo sapiens
# HUVEC [18] = experiment: as §1, with “late” for “early”, “10” for “0.1”, “9.5%)” for “21.2%)”; format: functional, Homo sapiens
# HUVEC [19] = experiment: Radioprotective activity against 5 Gy gamma radiation-mediated cell damage in HUVEC assessed as necrotic cells at 10 uM preincubated for 2 hrs followed by 5 Gy gamma irradiation and measured after 24 hrs by annexin-V-FITC/propidium iodide staining-based flow cytometric method (reference value: 3.5%); format: functional, Homo sapiens
# HUVEC [20] = experiment: Radioprotective activity against 5 Gy gamma radiation-mediated cell damage in HUVEC assessed as viable cells at 10 uM preincubated for 2 hrs followed by 5 Gy gamma irradiation and measured after 24 hrs by annexin-V-FITC/propidium iodide staining-based flow cytometric method (reference value: 65.8%); format: functional; conditions: Homo sapiens, light or radiation study, read-out: Activity
# HUVEC [21] = experiment: Radioprotective activity against 5 Gy gamma radiation-mediated cell damage in HUVEC assessed as reduction of total p53 levels at 0.1 to 10 uM by Western blot method; format: functional, cell-based; conditions: Homo sapiens
# HUVEC [22] = experiment: Radioprotective activity against 5 Gy gamma radiation-mediated cell damage in HUVEC assessed as reduction of phopsho-p53 levels at 0.1 to 10 uM by Western blot method; format: functional, cell-based; conditions: Homo sapiens
# HUVEC [23] = experiment: Radioprotective activity against 5 Gy gamma radiation-mediated cell damage in HUVEC assessed as decrease in caspase-3 activation at 0.1 to 10 uM by Western blot method; format: functional, cell-based; conditions: Homo sapiens
# HUVEC [24] = experiment: Radioprotective activity against 5 Gy gamma radiation-mediated cell damage in HUVEC assessed as increase in Bcl-2 levels at 0.1 to 10 uM by Western blot method; format: functional, cell-based; conditions: Homo sapiens
# HUVEC [25] = experiment: Radioprotective activity against 5 Gy gamma radiation-mediated cell damage in HUVEC assessed as decrease in Bax levels at 0.1 to 10 uM by Western blot method; format: functional, cell-based; conditions: Homo sapiens
# HUVEC [26] = experiment: Radioprotective activity against 5 Gy gamma radiation-mediated cell damage in HUVEC assessed as increase in cell survival at 0.01 to 1 uM after 48 hrs by MTT assay; format: functional, cell-based; conditions: Homo sapiens
# HUVEC [27] = experiment: Radioprotective activity against 5 Gy gamma radiation-mediated cell damage in HUVEC assessed as reduction of total p53 levels at 0.01 to 1 uM by Western blot method; format: functional, cell-based; conditions: Homo sapiens
# HUVEC [28] = experiment: Radioprotective activity against 5 Gy gamma radiation-mediated cell damage in HUVEC assessed as reduction of phopsho-p53 levels at 0.01 to 1 uM by Western blot method; format: functional, cell-based; conditions: Homo sapiens
# HUVEC [29] = experiment: Radioprotective activity against 5 Gy gamma radiation-mediated cell damage in HUVEC assessed as decrease in caspase-3 activation at 0.01 to 1 uM by Western blot method; format: functional, cell-based; conditions: Homo sapiens
# HUVEC [30] = experiment: Radioprotective activity against 5 Gy gamma radiation-mediated cell damage in HUVEC assessed as increase in Bcl-2 levels at 0.01 to 1 uM by Western blot method; format: functional, cell-based; conditions: Homo sapiens
# HUVEC [31] = experiment: Radioprotective activity against 5 Gy gamma radiation-mediated cell damage in HUVEC assessed as decrease in Bax levels at 0.01 to 1 uM by Western blot method; format: functional, cell-based; conditions: Homo sapiens
# HUVEC [32] = experiment: Radioprotective activity against 5 Gy gamma radiation-mediated cell damage in HUVEC assessed as cell survival at 0.1 uM preincubated for 2 hrs followed by 5 Gy gamma irradiation and measured after 48 hrs by MTT assay relative to control; format: functional; conditions: Homo sapiens, light or radiation study, read-out: Survival
# HUVEC [33] = experiment: Radioprotective activity against 5 Gy gamma radiation-mediated cell damage in HUVEC assessed as increase in cell survival at 0.1 to 10 uM after 48 hrs by MTT assay; format: functional, cell-based; conditions: Homo sapiens
compound,measurement,setting,value
CC(C)(C)c1ccc(CS(=O)(=O)/C=C/c2ccc(C(=O)OC3CC(C)(C)N([O])C(C)(C)C3)cc2)cc1,Activity,HUVEC [1],Non-Toxic
CC(C)(C)c1ccc(CS(=O)(=O)/C=C/c2ccc(C(=O)O)cc2)cc1,Activity,HUVEC [2],Toxic
O=C(O)c1ccc(/C=C/S(=O)(=O)Cc2ccc(C(F)(F)F)cc2)cc1,Activity,HUVEC [2],Toxic
O=S(=O)(/C=C/c1ccccc1)Cc1ccc(Cl)cc1,Activity,HUVEC [2],Toxic
Cc1ccc(CS(=O)(=O)/C=C/c2ccc(C(=O)O)cc2)cc1,Activity,HUVEC [2],Toxic
CC1(C)CC(OC(=O)c2ccc(/C=C/S(=O)(=O)Cc3ccc(F)cc3)cc2)CC(C)(C)N1[O],Activity,HUVEC [1],Non-Toxic
same,Activity,HUVEC [3],Active
same,Activity,HUVEC [4],7.1%
same,Activity,HUVEC [5],2.7%
same,Activity,HUVEC [6],1.4%
same,viability at 0.1 µM,HUVEC [7],88.8%
same,Activity,HUVEC [8],6.8%
same,Activity,HUVEC [9],1.4%
same,Activity,HUVEC [10],1%
same,viability at 1 µM,HUVEC [11],90.8%
same,Activity,HUVEC [12],13%
same,Activity,HUVEC [13],4%
same,Activity,HUVEC [14],1.9%
same,viability at 0.01 µM,HUVEC [15],81%
O=C(O)c1ccc(/C=C/S(=O)(=O)Cc2ccc(F)cc2)cc1,Activity,HUVEC [2],Toxic
same,Activity,HUVEC [16],inactive
same,Activity,HUVEC [4],7.3%
same,Activity,HUVEC [5],0.8%
same,Activity,HUVEC [6],1.5%
same,viability at 0.1 µM,HUVEC [7],90.4%
same,Activity,HUVEC [8],10.5%
same,Activity,HUVEC [9],2.3%
same,Activity,HUVEC [10],1.6%
same,viability at 1 µM,HUVEC [11],85.6%
same,Activity,HUVEC [17],4.7%
same,Activity,HUVEC [18],1%
same,Activity,HUVEC [19],1%
same,viability at 10 µM,HUVEC [20],93.4%
same,Activity,HUVEC [21],Active
same,Activity,HUVEC [22],Active
same,Activity,HUVEC [23],Active
same,Activity,HUVEC [24],Active
same,Activity,HUVEC [25],Active
CC1(C)CC(OC(=O)c2ccc(/C=C/S(=O)(=O)Cc3ccc(Cl)cc3)cc2)CC(C)(C)N1[O],Activity,HUVEC [1],Non-Toxic
same,Activity,HUVEC [3],Active
same,Activity,HUVEC [26],Active
same,Activity,HUVEC [4],6.2%
same,Activity,HUVEC [5],2.5%
same,Activity,HUVEC [6],1.3%
same,viability at 0.1 µM,HUVEC [7],90%
same,Activity,HUVEC [8],11.7%
same,Activity,HUVEC [9],2.9%
same,Activity,HUVEC [10],2.1%
same,viability at 1 µM,HUVEC [11],83.3%
same,Activity,HUVEC [12],11.2%
same,Activity,HUVEC [13],2.2%
same,Activity,HUVEC [14],1.9%
same,viability at 0.01 µM,HUVEC [15],84.7%
same,Activity,HUVEC [27],Active
same,Activity,HUVEC [28],Active
same,Activity,HUVEC [29],Active
same,Activity,HUVEC [30],Active
same,Activity,HUVEC [31],Active
O=C(O)c1ccc(/C=C/S(=O)(=O)Cc2ccc(OC(F)(F)F)cc2)cc1,Activity,HUVEC [2],Toxic
same,viability at 0.1 µM,HUVEC [32],50%
same,Activity,HUVEC [33],Active
same,Activity,HUVEC [4],7.8%
same,Activity,HUVEC [5],4.7%
same,Activity,HUVEC [6],4.3%
same,viability at 0.1 µM,HUVEC [7],83.3%
same,Activity,HUVEC [8],8.5%
same,Activity,HUVEC [9],6.2%
same,Activity,HUVEC [10],3.4%
same,viability at 1 µM,HUVEC [11],81.9%
same,Activity,HUVEC [17],7%
same,Activity,HUVEC [18],8.1%
same,Activity,HUVEC [19],3%
same,viability at 10 µM,HUVEC [20],81.9%
same,Activity,HUVEC [21],Active
same,Activity,HUVEC [22],Active
same,Activity,HUVEC [23],Active
same,Activity,HUVEC [24],Active
same,Activity,HUVEC [25],Active
O=S(=O)(/C=C/c1ccc(-c2ccccc2)cc1)Cc1ccc(Cl)cc1,Activity,HUVEC [2],Toxic
CC1(C)CC(OC(=O)c2ccc(/C=C/S(=O)(=O)Cc3ccc(OC(F)(F)F)cc3)cc2)CC(C)(C)N1[O],Activity,HUVEC [1],Non-Toxic
same,Activity,HUVEC [3],inactive
same,Activity,HUVEC [26],Active
same,Activity,HUVEC [4],12.7%
same,Activity,HUVEC [5],2%
same,Activity,HUVEC [6],0.6%
same,viability at 0.1 µM,HUVEC [7],84.7%
same,Activity,HUVEC [8],6.9%
same,Activity,HUVEC [9],1.1%
same,Activity,HUVEC [10],1.7%
same,viability at 1 µM,HUVEC [11],90.3%
same,Activity,HUVEC [12],15%
same,Activity,HUVEC [13],1.4%
same,Activity,HUVEC [14],1.1%
same,viability at 0.01 µM,HUVEC [15],82.5%
same,Activity,HUVEC [27],Active
same,Activity,HUVEC [28],Active
same,Activity,HUVEC [29],Active
same,Activity,HUVEC [30],Active
same,Activity,HUVEC [31],Active
Cc1ccc(/C=C/S(=O)(=O)Cc2ccc(Cl)cc2)cc1,Activity,HUVEC [2],Toxic
COc1ccc(CS(=O)(=O)/C=C/c2ccc(C(=O)O)cc2)cc1,Activity,HUVEC [2],Toxic
COc1ccc(/C=C/S(=O)(=O)Cc2ccc(Cl)cc2)cc1,Activity,HUVEC [2],Toxic
O=C(O)c1ccc(/C=C/S(=O)(=O)Cc2ccccc2)cc1,Activity,HUVEC [2],Toxic
CC(c1ccccc1)S(=O)(=O)/C=C/c1ccc(C(=O)OC2CC(C)(C)N([O])C(C)(C)C2)cc1 (configuration not stated),Activity,HUVEC [1],Non-Toxic
CC(c1ccccc1)S(=O)(=O)/C=C/c1ccc(C(=O)O)cc1 (configuration not stated),Activity,HUVEC [2],Toxic
same,Activity,HUVEC [16],Active
same,Activity,HUVEC [33],Active
